Calls of active or inactive are those of the source. The rule behind the calls is not given here.
Legend:
[1] = test system: HEp-2; test: Cytotoxicity against human Hep2 cells; assay type: functional, cell-based
[2] = test system: Daoy; test: Cytotoxicity against human DaOY cells; assay type: functional, cell-based
[3] = test system: DLD-1; test: Cytotoxicity against human DLD1 cells; assay type: functional, cell-based
[4] = test system: SH-SY5Y; test: Neuroprotective activity against 1 hr compound pretreated human SH-SY5Y cells assessed as reduction in 6-OHDA induced damage at 10 '-4 to 10 uM by MTT assay; assay type: functional; design: scale not given: the % may be the effect or the level left
[5] = test system: MCF7; test: Cytotoxicity against human MCF7 cells; assay type: functional, cell-based
[6] = test system: CCRF-CEM; test: Cytotoxicity against human CCRF-CEM cells; assay type: functional, cell-based
[7] = test system: WiDr; test: Cytotoxicity against human WiDr cells; assay type: functional, cell-based
[8] = test system: HL-60; test: Cytotoxicity against human HL60 cells; assay type: functional, cell-based
[9] = test system: P388D1; test: Cytotoxicity against […] cells; assay type: functional, cell-based; settings: Mus musculus
[10] = test system: SH-SY5Y; test: Neuroprotective activity against 1 hr compound pretreated human SH-SY5Y cells assessed as reduction in 6-OHDA induced damage at 1 uM by MTT assay; assay type: functional; design: scale not given: the % may be the effect or the level left
[11] = test system: SH-SY5Y; test: Neuroprotective activity against 1 hr compound pretreated human SH-SY5Y cells assessed as reduction in 6-OHDA induced damage at 10^-2 uM by MTT assay; assay type: functional; design: scale not given: the % may be the effect or the level left
[12] = test system: SH-SY5Y; test: Neuroprotective activity against 1 hr compound pretreated human SH-SY5Y cells assessed as reduction in 6-OHDA induced damage at 10^-4 uM by MTT assay; assay type: functional; design: scale not given: the % may be the effect or the level left
[13] = test system: SH-SY5Y; test: Neuroprotective activity against 1 hr compound pretreated human SH-SY5Y cells assessed as reduction in 6-OHDA induced damage at 10^-3 uM by MTT assay; assay type: functional; design: scale not given: the % may be the effect or the level left
[14] = test system: SH-SY5Y; test: Neuroprotective activity against 1 hr compound pretreated human SH-SY5Y cells assessed as reduction in 6-OHDA induced damage at 10 uM by MTT assay; assay type: functional; design: scale not given: the % may be the effect or the level left
[15] = test system: SH-SY5Y; test: Neuroprotective activity against 1 hr compound pretreated human SH-SY5Y cells assessed as reduction in 6-OHDA induced damage at 10^-1 uM by MTT assay; assay type: functional; design: scale not given: the % may be the effect or the level left
[16] = test system: RAW264.7; test: Antiinflammatory activity in mouse RAW264.7 cells assessed as inhibition of LPS-induced up-regulation of pro-inflammatory protein iNOS by Western blot analysis; assay type: functional
[17] = test system: RAW264.7; test: Antiinflammatory activity in mouse RAW264.7 cells assessed as inhibition of LPS-induced up-regulation of pro-inflammatory protein COX-2 by Western blot analysis; assay type: functional
[18] = read-out: ED50 (the source's name)

EC50 [16, 18]	EC50 [17, 18]	Structure (SMILES)	Activity [1]	Activity [2]	Activity [3]	Activity [4]	Activity [5]	Activity [6]	Activity [7]	Activity [8]	Activity [9]	Activity [10]	Activity [11]	Activity [12]	Activity [13]	Activity [14]	Activity [15]	Activity [16]	Activity [17]
		CO[C@H]1O[C@@]23C=CC[C@H](C)[C@@]2(C)[C@@H](C(=O)CC3)[C@@H]1C [FLAVALIN C]	inactive	inactive	inactive	<20%	inactive	inactive	inactive	inactive	inactive								
		CO[C@@H]1O[C@@]23C=CC[C@H](C)[C@@]2(C)[C@@H](C(=O)CC3)[C@@H]1C [FLAVALIN D]	inactive	inactive	inactive	<20%	inactive	inactive	inactive	inactive	inactive								
		C[C@@H]1[C@@H](O)O[C@@]23C=CC[C@H](C)[C@@]2(C)[C@H]1C(=O)CC3 [FLAVALIN B]	inactive	inactive	inactive		inactive	inactive	inactive	inactive	inactive	21.3%	30.2%	29.6%	32.6%	30.1%	24.3%		
20.5 µM	26.5 µM	C[C@@H]1[C@@H]2O[C@H]3CC[C@@]4(C=CC[C@H](C)[C@@]4(C)[C@H]13)O2 [FLAVALIN A]	inactive	inactive	inactive		inactive	inactive	inactive	inactive	inactive	35.1%	30.8%	16.9%	5.84%	20.9%	25.3%	Dose-dependent effect	Dose-dependent effect

— ChEMBL document CHEMBL1687855, “Nardosinane sesquiterpenoids from the Formosan soft coral Lemnalia flava” (2011)
